Patent publication US12336991B2, “Factor XIIA inhibitors” (UNIVERSITY OF LEEDS, priority 2018, dated 2025)

How the values were obtained:
Format in all cases: biochemical
thrombin = biological target: T1, thrombin (Homo sapiens, UniProt P00734); assay: Determination of selectivity: thrombin inhibition, chromogenic substrate GPR assay; conditions: fold selectivity for FXIIa over thrombin
T1 construct: FXa (5 nM) and thrombin (5 nM)
Protocol: (§1) The activities of the compounds of the invention have been determined in vitro using the following assays protocols for the screening of activity of FXIIa and other proteases. Each of these assays were performed in a purified system employing the use of chromogenic assays in microplate plate wells. Chromogenic peptide substrates mimicking natural protein substrates are attached via an amide bond to a chromogenic group. Paranitroaniline (pNA) is released from the peptide following catalyses by the proteolytic enzyme; the absorbance increases and can be monitored at 405 nm.
(§2) All compounds were dissolved in 100% (v/v) DMSO to a stock concentration of 10 mM, the highest concentration of compound used in each assay is 500 μM. The final concentrations of DMSO were 5% (v/v) in 50 mM Tris 137 mM NaC pH 7.4. Where no test compound was added a final concentration of 5% DMSO was employed.
(§3) Determination of Selectivity
(§4) To determine selectivity of test compounds, these test compounds were assayed for inhibitory activity against other serine proteases including FXa and thrombin. Essentially compounds at increasing concentrations were incubated with each enzyme: FXa (5 nM) and thrombin (5 nM), for 10 mins at 37° C. followed the appropriate chromogenic substrate, S2765 ([…]), and GPR ([…]) respectively in 50 mM Tris, 137 mM NaCl, pH 7.4. Chromogenic substrates S2765 was from Chromogenix, and GPR from Bachem. Kinetic readings at 405 nm were monitored every 12 secs for a total duration of 3 hours at 37° C. Gradients of initial rates were determined and employed to calculate IC50 values. Values of IC50 were converted to Ki values based on the formula: Ki=IC50/(1+[Substrate]/Km)
(§5) Where [Substrate] denotes the concentration of substrate used in the assay and Km is the determined value of each enzyme with its own substrate.
(§6) The fold selectivity for FXIIa over thrombin for the compounds of the invention has been categorised based on the fold selectivity values, the categories being “+”, “++” and “+++”. The category “+” refers to fold selectivity values less than 10. The category “++” refers to a fold selectivity value of 10 to 100. The category “+++” refers to fold selectivity values greater than 100.

FXIIa = biological target: T2, FXIIa (Homo sapiens, UniProt P00748); assay: Determination of Factor XIIa inhibition, chromogenic substrate S-2302 assay; conditions: human FXIIa alpha
T2 sequence (P00748 373-615 limits assumed): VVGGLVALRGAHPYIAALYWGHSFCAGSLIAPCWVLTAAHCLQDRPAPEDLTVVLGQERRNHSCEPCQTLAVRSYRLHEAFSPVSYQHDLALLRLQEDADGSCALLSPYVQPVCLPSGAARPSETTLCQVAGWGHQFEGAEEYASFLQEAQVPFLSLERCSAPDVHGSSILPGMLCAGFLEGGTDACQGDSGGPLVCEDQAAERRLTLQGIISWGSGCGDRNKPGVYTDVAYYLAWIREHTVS
T2 sequence (P00748 20-372 partner limits assumed): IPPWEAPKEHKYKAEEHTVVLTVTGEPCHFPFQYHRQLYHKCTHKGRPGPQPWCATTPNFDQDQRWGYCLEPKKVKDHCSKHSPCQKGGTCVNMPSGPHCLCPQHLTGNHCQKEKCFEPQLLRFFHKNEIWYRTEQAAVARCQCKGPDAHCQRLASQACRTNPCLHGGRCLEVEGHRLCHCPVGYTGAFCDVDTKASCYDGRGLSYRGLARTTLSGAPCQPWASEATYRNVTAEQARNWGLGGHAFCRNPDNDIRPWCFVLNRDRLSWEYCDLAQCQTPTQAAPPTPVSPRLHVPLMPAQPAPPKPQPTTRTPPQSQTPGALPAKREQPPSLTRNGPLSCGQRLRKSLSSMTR
Protocol: as §1, §2
Determination of Factor XIa Inhibition
Factor XIa activity was measured using a chromogenic substrate S-2302 (Chromogenix). Various concentrations of compound were incubated with 10 nM of FXIIa and incubated at 37° C. for 10 minutes in 50 mM Tris, 137 mM NaCl, pH 7.4, prior to the addition of a final concentration of 450 µM S-2302 chromogenic substrate. Kinetic readings at 405 nm were monitored every 12 secs for a total duration of 3 hours at 37° C. Gradients of initial rates were determined and employed to calculate IC50 values. Values of IC50 were converted to Ki values based on the formula: Ki=IC50/(1+[Substrate]/Km).
The activity of the compounds of the invention has been categorised based on the Ki values, the categories being “*”, “**” and “***”. […] The category “**” refers to compounds with a Ki value of 0.2 μM to 2 μM.

FXa = FXa (Homo sapiens, UniProt P00742); assay: Determination of selectivity: FXa inhibition, chromogenic substrate S2765 assay; conditions: fold selectivity for FXIIa over FXa
Protocol: as §1, §2, §3, §4, §5, §6
The fold selectivity for FXIIa over FXa for the compounds of the invention has been categorised based on the fold selectivity values, the categories being “o”, “oo” and “ooo”. The category “o” refers to fold selectivity values less than 10. The category “oo” refers to a fold selectivity value of 10 to 100. The category “ooo” refers to fold selectivity values greater than 100.

Chain of FXa (P00742 235-488 limits assumed): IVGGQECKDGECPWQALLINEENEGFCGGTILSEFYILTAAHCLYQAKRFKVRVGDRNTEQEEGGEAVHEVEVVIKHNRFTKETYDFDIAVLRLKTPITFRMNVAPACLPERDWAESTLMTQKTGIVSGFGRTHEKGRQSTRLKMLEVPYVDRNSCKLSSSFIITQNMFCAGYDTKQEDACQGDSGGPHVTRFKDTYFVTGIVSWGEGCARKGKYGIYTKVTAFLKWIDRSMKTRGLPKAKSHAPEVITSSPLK
Chain of FXa (P00742 41-179 partner limits assumed): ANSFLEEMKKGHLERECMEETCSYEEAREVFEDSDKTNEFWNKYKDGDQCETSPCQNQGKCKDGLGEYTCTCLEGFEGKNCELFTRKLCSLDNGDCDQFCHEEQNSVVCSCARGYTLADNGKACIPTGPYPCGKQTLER

SMILES | Ki (FXIIa) | FXa (human)/FXIIa alpha (human) (FXa) | Thrombin (human)/FXIIa alpha (human) (thrombin)
Cn1nnc2cc(CNC(=O)[C@@H]3C[C@@](O)(c4ccc(F)c(F)c4)CN3C(=O)[C@H](N)CCc3ccccc3)ccc21 [Example M05128] | > 2 µM | ∘∘ | ++ (fold selectivity value of 10 to 100)
Cn1nnc2cc(CNC(=O)[C@@H]3C[C@@H](Cc4cccnc4)CN3C(=O)[C@H]3C[C@@H](c4ccccc4)CN3)ccc21 [Example M05338] | > 2 µM | ∘∘ | ++ (fold selectivity value of 10 to 100)
CNC(=O)N[C@H]1C[C@@H](C(=O)NCc2ccc3c(c2)nnn3C)N(C(=O)[C@H](N)CCc2ccccc2)C1 [Example M05208] | > 2 µM | ∘∘ | ++ (fold selectivity value of 10 to 100)
Cn1nnc2cc(CNC(=O)[C@@H]3C[C@@H](Cc4ccc(F)cc4)CN3C(=O)C3C[C@@H](c4ccccc4)CN3)ccc21 (stereo partly drawn) [Example M05324] | > 2 µM | ∘∘ | ++ (fold selectivity value of 10 to 100)
NCc1ccc(CNC(=O)[C@@H]2CCCN2C(=O)[C@H](N)CCC(=O)N2CCC3CC32)cc1 (stereo partly drawn) [Example M00929] | > 2 µM | ∘∘ | + (fold selectivity values less than 10)
COc1ccc(C[C@@H]2C[C@@H](C(=O)NCc3ccc4c(c3)nnn4C)N(C(=O)C3NCCc4cc(Br)ccc43)C2)cc1 (stereo partly drawn) [Example M05471] | > 2 µM | ∘∘ | ++ (fold selectivity value of 10 to 100)
Cn1nnc2cc(CNC(=O)[C@]3(C)CCCN3C(=O)[C@H](N)CCC(=O)N3CCCC3)ccc21 [Example M05318] | > 2 µM | ∘∘ | + (fold selectivity values less than 10)
Cn1nnc2cc(CNC(=O)[C@@H]3C[C@H](c4ccccc4)CN3C(=O)[C@H](N)CCc3ccccc3)ccc21 [Example M05163] | > 2 µM | ∘∘ | ++ (fold selectivity value of 10 to 100)
COc1ccc(C[C@@H]2C[C@@H](C(=O)NCc3ccc4c(c3)nnn4C)N(C(=O)[C@@H]3NCCc4ccccc43)C2)cc1 [Example M05368] | > 2 µM | ∘∘ | ++ (fold selectivity value of 10 to 100)
COc1ccc(C[C@@H]2C[C@@H](C(=O)NCc3ccc4c(c3)nnn4C)N(C(=O)[C@H](N)CCC(=O)N3[C@H]4CC[C@@H]3CC4)C2)cc1 [Example M05394] | 0.2 to 2 µM | ∘∘∘ | +++ (fold selectivity values greater than 100)
Cn1nnc2cc(CNC(=O)[C@@H]3C[C@H](Cc4ccccc4)CN3C(=O)[C@H](N)CCC(=O)N3CCCC3)ccc21 [Example M05211, (2S,4S)-1-((R)-2-Amino-5-oxo-5-pyrrolidin-1-yl-pentanoyl)-4-benzyl-pyrrolidine-2-carboxylic acid (1-methyl-1H-benzotriazol-5-ylmethyl)-amide] | 0.2 to 2 µM | ∘∘∘ | +++ (fold selectivity values greater than 100)
Cn1nnc2cc(CNC(=O)[C@@H]3C[C@@H](CC4CCCC4)CN3C(=O)[C@H](N)CCC(=O)N3CCCC3)ccc21 [Example M05291] | 0.2 to 2 µM | ∘∘∘ | +++ (fold selectivity values greater than 100)

Further lines, with some results ahead:

Ki (FXIIa) | FXa (human)/FXIIa alpha (human) (FXa) | SMILES | Thrombin (human)/FXIIa alpha (human) (thrombin)
< 0.2 µM | ∘∘∘ | Cn1nc(Cl)c2cc(CNC(=O)[C@@H]3C[C@@H](Cc4ccncc4)CN3C(=O)[C@H](N)CCC(=O)N3CCCC3)ccc21 [Example M05241] | ++ (fold selectivity value of 10 to 100)
0.2 to 2 µM | ∘∘∘ | COc1ccc(C[C@@H]2C[C@@H](C(=O)NCc3ccc4c(c3)nnn4C)N(C(=O)[C@H]3CC(c4cccnc4C)CN3)C2)cc1 (stereo partly drawn) [Example M05406] | +++ (fold selectivity values greater than 100)
< 0.2 µM | ∘∘∘ | COc1ccc(CC2C[C@@H](C(=O)NCc3ccc4c(c3)nnn4C)N(C(=O)[C@H](N)CCC(=O)N3CCCC3)C2)cc1Cl (stereo partly drawn) [Example M05298] | +++ (fold selectivity values greater than 100)
0.2 to 2 µM | ∘∘∘ | COc1ccc(C[C@@H]2C[C@@H](C(=O)NCc3ccc4c(c3)nnn4C)N(C(=O)[C@H]3C[C@@H](c4cnn(C)c4)CN3C)C2)cc1 [Example M05474, (2S,4R)-4-(4-Methoxy-benzyl)-1-[(2R,4S)-1-methyl-4-(1-methyl-1H-pyrazol-4-yl)-pyrrolidine-2-carbonyl]-pyrrolidine-2-carboxylic acid (1-methyl-1H-benzotriazol-5-ylmethyl)-amide] | +++ (fold selectivity values greater than 100)
< 0.2 µM | ∘∘∘ | COc1ccc(C[C@@H]2C[C@@H](C(=O)NCc3cc4cnccc4[nH]3)N(C(=O)C3C[C@@H](C(=O)N4CCCC4)CCN3)C2)cc1 (stereo partly drawn) [Example M00966] | +++ (fold selectivity values greater than 100)
0.2 to 2 µM | ∘∘∘ | Cn1nccc1-c1ccc(C[C@@H]2C[C@@H](C(=O)NCc3ccc4c(c3)nnn4C)N(C(=O)[C@H]3C[C@@H](c4ccccc4)CN3)C2)cc1 [Example M05367] | +++ (fold selectivity values greater than 100)
0.2 to 2 µM | ∘∘ | Nc1cc(CNC(=O)[C@@H]2C[C@@](O)(c3ccccc3)CN2C(=O)[C@H](N)CCc2ccccc2)ccn1 [Example M05125] | ++ (fold selectivity value of 10 to 100)
< 0.2 µM | ∘∘∘ | COc1ccc(C[C@@H]2C[C@@H](C(=O)NCc3cc4cnccc4[nH]3)N(C(=O)[C@H]3C[C@@H](C(=O)N4CCCC4(C)C)CCN3)C2)cc1 [Example M00967] | +++ (fold selectivity values greater than 100)
0.2 to 2 µM | ∘∘∘ | Cn1nnc2cc(CNC(=O)[C@@H]3C[C@@H](Cc4cc(F)cc(F)c4)CN3C(=O)[C@H](N)CCC(=O)N3CCCC3)ccc21 [Example M05274] | +++ (fold selectivity values greater than 100)
0.2 to 2 µM | ∘∘∘ | Cn1nnc2cc(CNC(=O)[C@@H]3C[C@@H](Cc4ccncc4)CN3C(=O)[C@H](N)CCC(=O)N3CCCC3)ccc21 [Example M05189] | +++ (fold selectivity values greater than 100)
